The subject of one test is tobacco calli. Briefly: Herbicide toxicity to tobacco calli on selection media. In kind it is cell-based. The settings on record: for callus survival: control calli, concentrations above 1 μM, after 3 weeks; for suitable selection concentration for RLE3-expressing transgenic tobacco calli: preliminary experiments. The source says:
The experimental procedure compared the herbicide toxicity of the pyridines upon exposure to tobacco calli that were transformed with a plasmid DNA, pMON13765 (FIG. 8) containing the RLE3 gene, and tobacco calli controls transformed with isogenic plasmid DNA without the RLE3 gene. The vectors, which also encoded NPTII for kanamycin selection, were introduced via Agrobacterium transformation. Kanamycin resistant calli were cut into pieces of 3-5 mm diameter and transferred onto selection media (Murahige and Skoog basal salt mixture in 0.9% agar) containing 0.01, 0.1, 1.0, or 10.0 μM concentration of either thiazopyr or MON 14300 (1 mM stock solution in DMSO). Plates were placed in a lighted growth chamber maintained at 22° C. […] Most control calli were dead after 3 weeks at pyridine herbicide concentrations above 1 μM. […] Preliminary experiments identified 0.1 μM 14300 or thiazopyr as a suitable selection concentration for identifying transgenic tobacco calli that are expressing the RLE3 esterase. It is believed that any member of the pyridine herbicide family that is deactivated by an esterase, and any esterase gene that can hydrolyze the methylester group of a pyridine herbicide would be able to function in this selection system.

A further test deals with T1, RLE3 (Oryctolagus cuniculus, UniProt P12337, A196R/H30K).
T1 construct: 19-residue synthetic ER signal peptide (design based on the homologous rat esterase, Robbi et al. 1990; Ala added after Met) (N); made in house; host or cells: Spodoptera frugiperda SF9 cells, baculovirus
T1 sequence (P12337 with tags, fused parts or gaps H30K/A196R): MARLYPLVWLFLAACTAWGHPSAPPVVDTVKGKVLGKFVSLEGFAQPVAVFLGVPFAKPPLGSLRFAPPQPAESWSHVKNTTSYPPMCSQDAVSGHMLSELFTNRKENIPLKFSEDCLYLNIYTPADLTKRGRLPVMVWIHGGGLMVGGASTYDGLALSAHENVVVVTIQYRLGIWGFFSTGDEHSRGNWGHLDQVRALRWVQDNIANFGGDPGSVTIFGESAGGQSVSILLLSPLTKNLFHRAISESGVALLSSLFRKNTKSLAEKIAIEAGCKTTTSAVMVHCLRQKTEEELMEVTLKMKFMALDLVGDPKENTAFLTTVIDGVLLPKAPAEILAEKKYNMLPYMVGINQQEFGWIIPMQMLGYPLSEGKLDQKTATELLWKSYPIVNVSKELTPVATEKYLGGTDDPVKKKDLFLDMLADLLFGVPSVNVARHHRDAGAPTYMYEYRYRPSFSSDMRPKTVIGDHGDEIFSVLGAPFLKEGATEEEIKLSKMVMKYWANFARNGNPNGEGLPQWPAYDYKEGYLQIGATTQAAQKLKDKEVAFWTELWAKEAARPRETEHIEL
The test is described as follows: Esterase activity of RLE3 cDNA expressed in insect cells. In kind it is biochemical, rabbit. Particulars: culture media from SF9 cells containing RLE3 cDNA. The procedure:
(§1) Esterase activity assays. Esterase activity was measured in vitro by conversion of either [^14 C]thiazopyr or [^14 C]MON 14300 to their corresponding monoacid. Pyridine-esterase activity was assayed during protein purification and from tissue extracts of transgenic plants. The homogenizing buffer for plant tissues consisted of 100 mM Tris pH 8.0, 1 mM EDTA, 1 mM DTT, and 10% glycerol in water. Plant tissues (1 g/ml buffer) including leaves, seeds, flowers, seedlings, etc. were homogenized in conical centrifuge tubes using a spinning pestle at 4° C. Following centrifugation (12,000× g), the supernatant (250 μl) was assayed immediately for esterase activity by incubation with [^14 C]thiazopyr or [^14 C]MON 14300 (4 μg) in 0.1 M Tris pH 8.0 buffer (50 μl) at 37° C. The reaction was sampled (100 μL) at various times (0.5 to 100 hr) to generate a kinetic profile of monoacid formation. The reaction was stopped by addition of 1% trifluoroacetic acid in acetonitrile (v/v, 150 μl). Following centrifugation (12,000× g for 3 min), the supernatant was analyzed by HPLC/RAD (radioactivity detection) to resolve the monoacid from the parent herbicide and other metabolites. Control reactions in the absence of the esterase recovered un-reacted thiazopyr or MON 14300 for the duration of experiments. Esterase activity was also assayed during protein purification following a similar procedure except a single time-point (1-2 hrs) of incubation was selected within the linear range of reaction. In vitro assays also employed three commonly used calorimetric (p-nitrophenyl butyrate) or fluorescent (4-methyl umbelliferyl butyrate and 5-bromo-4-chloro-3-indolylacetate) substrates. These substrates are useful in rapidly and qualitatively detecting general esterase activity.
Expression of RLE1 and RLE3 cDNAs in insect cells. Mature rabbit liver esterases are glycoproteins which reside in the lumen of the endoplasmic reticulum (ER) (Korza et al., 1988). […]

In another test the target is T2, pyridine-esterase (Oryctolagus cuniculus, UniProt P12337, A196R/H30K).
T2 construct: made in house; host or cells: transgenic tobacco (Samson) and tomato (UC82B) plants, tissue extracts
T2 sequence (P12337 19-565 H30K/A196R): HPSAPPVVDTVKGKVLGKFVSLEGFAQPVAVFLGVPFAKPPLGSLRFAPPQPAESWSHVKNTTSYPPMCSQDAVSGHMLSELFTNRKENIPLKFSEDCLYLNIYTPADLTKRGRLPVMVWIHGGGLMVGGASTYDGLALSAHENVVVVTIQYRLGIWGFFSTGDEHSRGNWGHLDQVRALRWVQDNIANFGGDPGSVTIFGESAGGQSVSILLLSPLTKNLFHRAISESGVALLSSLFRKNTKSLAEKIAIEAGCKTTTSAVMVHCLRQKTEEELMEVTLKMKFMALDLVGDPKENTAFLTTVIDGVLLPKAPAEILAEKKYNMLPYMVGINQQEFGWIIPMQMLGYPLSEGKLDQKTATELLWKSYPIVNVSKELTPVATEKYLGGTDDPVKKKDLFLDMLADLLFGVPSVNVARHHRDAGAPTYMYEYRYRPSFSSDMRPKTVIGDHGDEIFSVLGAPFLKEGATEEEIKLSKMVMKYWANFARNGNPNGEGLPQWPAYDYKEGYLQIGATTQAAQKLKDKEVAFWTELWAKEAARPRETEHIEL
Briefly: Esterase activity in leaf extracts from R0 tomato and tobacco plants. The format is biochemical, rabbit. The settings on record: R0 tomato and tobacco plants expressing the 60 kD esterase. The procedure: as §1, with “Esterase activity was also assayed during protein purification following a similar procedure except a single time-point (1-2 hrs) of incubation was selected within the linear range of reaction. In vitro assays also employed three commonly used calorimetric (p-nitrophenyl butyrate) or fluorescent (4-methyl umbelliferyl butyrate and 5-bromo-4-chloro-3-indolylacetate) substrates. These substrates are useful in rapidly and qualitatively detecting general esterase activity.” left out

[1] abbreviates: control vector calli, concentrations above 0.1 μM, after 2-3 weeks.

In the case of `COC(=O)c1c(C(F)F)nc(C(F)(F)F)c(C(=O)n2cccn2)c1CC(C)C` [MON 14300], the callus growth in the test with tobacco calli (RLE3 calli, 1.0 to 10 μM) is “stunting with reduced shoot development”; in the test on tobacco calli (calli expressing RLE3, 0.1 μM), “vigorous growth and shoot development”; in the test with tobacco calli (setting [1]), “little growth”. In addition, the callus survival in the test with tobacco calli is “dead”. In addition, in the test on tobacco calli, the “suitable selection concentration for RLE3-expressing transgenic tobacco calli” value turned out to be 0.1 µM. Moreover, at RLE3, the “esterase activity against substrate” value is “demonstrated esterase activity”. The “hydrolysis by leaf extracts” value on pyridine-esterase is “did demonstrate the hydrolysis”.
Turning to `COC(=O)c1c(C(F)F)nc(C(F)(F)F)c(C2=NCCS2)c1CC(C)C` [thiazopyr], the callus growth with tobacco calli (RLE3 calli, 1.0 to 10 μM) is “stunting with reduced shoot development”; in the test with tobacco calli (calli expressing RLE3, 0.1 μM) it was “vigorous growth and shoot development”; in the test with tobacco calli (setting [1]), “little growth”. For the same compound, the callus survival in the test with tobacco calli was “dead”. In addition, the “suitable selection concentration for RLE3-expressing transgenic tobacco calli” value in the test on tobacco calli amounted to 0.1 µM. The “esterase activity against substrate” value on RLE3 is on record as “demonstrated esterase activity”. Besides, the “hydrolysis by leaf extracts” value on pyridine-esterase is given as “did demonstrate the hydrolysis”.

The record behind these values is patent US6107549A, “Genetically engineered plant resistance to thiazopyr and other pyridine herbicides” (Monsanto Company, priority 1999, dated 2000).
